Columns and labels:
B16-OVA melanoma cells = assay: Tumor extracellular pH (pHe) by magnetic resonance spectroscopy (MRS); type: in vivo, mice; settings: esomeprazole 12.5 mg/kg i.p.; reached within 60 min; baseline approximately 6.5
B16-OVA cells [1] = assay: TIL effector function (intracellular IFNγ) after infusion of activated CFSE-labelled OTI cells; type: in vivo, mice
STAT6 [2] = assay: STAT6 phosphorylation state in circulating monocytes of treated patients; type: in vivo, advanced melanoma patients; settings: with respect to cells obtained prior to PPI administration
Description: (§1) We also tested the effect of PPI in advanced melanoma patients receiving high dose esomeprazole (120mg/day for 3 days) in the context of a clinical trial testing the ability of PPI pretreatment to sensitized patients to chemotherapy (CISPLATIN).

[3] = tested on: transgenic adenocarcinoma of the mouse prostate (TRAMP); assay: IFN-γ production of prostate-infiltrating tumor-specific T cells after HSCT, DLI and DC-Tag-IV vaccination; type: in vivo, mice; settings: PPI i.p. 3 days after DC-Tag-IV vaccine, killed after 24 h; vs PBS
MDSC in peripheral blood = assay: Peripheral blood cell frequencies in advanced melanoma patients on high dose esomeprazole; type: in vivo; settings: esomeprazole 120mg/day for 3 days
Description: as §1

B16 melanoma = assay: Survival of mice bearing B16 melanoma not expressing OVA (OTI control; TBI plus TRP-2-sensitized splenocytes); type: in vivo
STAT6 [4] = assay: pSTAT evaluation in primary monocytes, IL13 stimulation; type: cell-based, human; settings: pre-treated 3 hours, in response to IL13 (30 min)
B16-OVA cells [5] = assay: Functional avidity of tumor CD8+ T cells in the active immunotherapy model (naïve OTI transfer, DC-OVA257-264 vaccine); type: in vivo, mice; settings: PPI i.p. at day 11, sacrificed 1 day later; vs PBS
[6] = Dosing experiments for tolerated dose; design: species or system mice; settings: mouse, in vivo; dosing experiments ranging from 1.25-600 mg/kg; read-out: highest tolerated dose
STAT3 [7] = assay: pSTAT evaluation in primary monocytes, IL6 stimulation; type: cell-based, human; settings: pre-treated 3 hours, in response to IL6 (30 min)
B16-OVA = assay: Survival with adoptive immunotherapy (activated OTI cells) combined with PPI; type: in vivo, mice
STAT3 [8] = assay: STAT3 phosphorylation state in circulating monocytes of treated patients; type: in vivo, advanced melanoma patients; settings: with respect to cells obtained prior to PPI administration
Description: as §1

[9] = tested on: Primary human monocytes from HD PBMC; type: cell-based
circulating monocytes = assay: Ex-vivo cytokine secretion by circulating monocytes of treated patients; type: in vivo, advanced melanoma patients; settings: after 3 days of high dose PPI treatment
Description: as §1

B16-OVA melanoma = assay: Flow cytometry of tumor-infiltrating leukocytes after DC-OVA257-264 vaccination; type: in vivo, mice; settings: 7-day-old melanomas, DC-OVA257-264 vaccine, PPI i.p. on day 3 post vaccine, analysed after 24h; vs PBS
STAT1 = assay: pSTAT evaluation in primary monocytes, IFNa stimulation; type: cell-based, human; settings: pre-treated 3 hours, in response to IFNa (30 min)
[10] = tested on: allogenic HLA-matched melanoma cells; settings: PPI + chemotherapy (CISPLATIN) vs chemotherapy alone
Description: as §1

Compound: COc1ccc2nc([S@@+]([O-])Cc3ncc(C)c(OC)c3C)[nH]c2c1 [esomeprazole]
- tumor pHe (B16-OVA melanoma cells): 7.0
- frequency of CFSE+ OT-1 cells (B16-OVA cells [1]; 12-day-old melanoma, PPI 24h after OTI infusion, sacrificed 1 day later, vs PBS): comparable
- percentage of CD44+CD8+IFNY+ T cells in tumor-derived CFSE+ T cells (B16-OVA cells [1]; 12-day-old melanoma, PPI 24h after OTI infusion, vs PBS): significantly enhanced
- IFNY production by CD8+CD44+ T cells isolated from the spleen, lung and kidney (B16-OVA cells [1]; CFSE+ and CFSE- subsets, PPI- vs PBS-treated groups): did not differ
- IFNY production in CFSE- TILs (B16-OVA cells [1]; endogenous T cells, PPI-treated vs PBS-treated mice): higher IFNY production
- reduction in STAT6 phosphorylation state (STAT6 [2]): 15%
- population of TIL specifically reacting against the tumor antigen (CD44+IFN-γ+ within CD8+) [3]: markedly increased
- frequency of MDSC in peripheral blood (MDSC in peripheral blood): significantly and rapidly decreases
- total CD14+, CD3+, CD4+, CD19+ cells or granulocytes in peripheral blood (MDSC in peripheral blood): no change
- survival of mice with B16 melanomas not expressing OVA (B16 melanoma; OTI cells and PPI treatment): did not impact
- Survival (B16 melanoma; TBI 600 Rad, TRP-2-sensitized splenocytes plus PPI vs single adoptive transfer of splenocytes only): significantly prolonged
- STAT6 phosphorylation (STAT6 [4]): inhibit
- increase in ability of magnetic bead sorted CD8+ T cells to recognize OVA257-264 (B16-OVA cells [5]): by at least one log
- MTD [6]: 12.5 mg/kg
- STAT3 phosphorylation (STAT3 [7]): inhibit
- animal survival (B16-OVA; 8-day melanoma, combined treatment with PPI (12.5 mg/kg) and OTI cells, relative to PBS alone): doubling in the overall survival rate
- tumor growth inhibition (B16-OVA; PPI administered before OTI adoptive transfer): equal tumor growth inhibition
- reduction in STAT3 phosphorylation state (STAT3 [8]): 20%
- release of cytokines/chemokines such as IL-8, GRO and MCD ([9]; PPI pretreatment, data not shown): did not affect
- cytokine/chemokine secretion ([9]; esomeprazole 100 µg/ml pre-treatment 3 hours, then mel-EXO 100 µg for 24 hours): significantly reduced
- ex-vivo secretion of VEGF-A (circulating monocytes; before treatment 120±100): 104±58
- ex-vivo secretion of TGFβ (circulating monocytes; before treatment 1809±900): 1502 ± 755 pg/mL
- inflammatory infiltrate of the tumor mass (B16-OVA melanoma): did not substantially modify
- STAT1 phosphorylation (STAT1): inhibit
- tumor immunity in peripheral blood [10]: significant increase

From EP2548555A1, “Proton pump inhibitors as immunomodulators” (Fondazione IRCCS Istituto Nazionale dei Tumori, priority 2011, dated 2013)
